Results: ChEMBL document CHEMBL1201862, “PubChem BioAssay data set” (2004)
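Cultured in 96-well plates, cells were exposed to test compound for 48 hours across five concentrations. Abbreviation: GI50, concentration required for 50% inhibition of growth.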 Calls of active or inactive are those of the source. Rule as the data show it: active = GI50 up to about 1.1 µM and inactive = higher.

Legend:
Assay in all cases: NCI-60 cell line screen, 48 h
SNB-75 = test system: SNB-75
DU-145 = test system: DU-145
HOP-62 = test system: HOP-62
SNB-19 = test system: SNB-19
SF-268 = test system: SF-268
HL-60 = test system: HL-60
U-251 = test system: U-251
IGROV-1 = test system: IGROV-1
UACC-62 = test system: UACC-62
OVCAR-8 = test system: OVCAR-8
UACC-257 = test system: UACC-257
NCI-H460 = test system: NCI-H460
T47D = test system: T47D
RPMI-8226 = test system: RPMI-8226
SF-295 = test system: SF-295
NCI-H226 = test system: NCI-H226
COLO 205 = test system: COLO 205
K562 = test system: K562
OVCAR-4 = test system: OVCAR-4

Measured: GI50

CN(C)c1n2c3cc([N+](=O)[O-])ccc3[n+]3c(N(C)C)n4ccccc4c3c2c2cccc[n+]12.[O-][Cl+3]([O-])([O-])[O-].[O-][Cl+3]([O-])([O-])[O-]
inactive: SNB-75 > 100 µM | DU-145 > 100 µM | HOP-62 > 100 µM | SNB-19 43.1 µM | SF-268 29.7 µM | HL-60 > 100 µM | U-251 51.1 µM | IGROV-1 > 100 µM | UACC-62 > 100 µM | OVCAR-8 > 100 µM | UACC-257 > 100 µM | NCI-H460 > 100 µM | T47D 73.3 µM | RPMI-8226 > 100 µM | SF-295 > 100 µM | NCI-H226 > 100 µM | COLO 205 > 100 µM | K562 > 100 µM | OVCAR-4 > 100 µM

N=C(N)NS(=O)(=O)c1ccc(NCc2cccc3c(=O)c4ccc(Cl)cc4oc23)cc1
inactive: SNB-75 3.08 µM | DU-145 5.57 µM | HOP-62 > 10.2 µM | SNB-19 5.97 µM | SF-268 4.33 µM | HL-60 1.38 µM | U-251 5.22 µM | IGROV-1 3.43 µM | UACC-62 6.19 µM | OVCAR-8 7.52 µM | UACC-257 11.1 µM | NCI-H460 3.15 µM | T47D > 6.18 µM | RPMI-8226 4.61 µM | SF-295 > 9.35 µM | NCI-H226 > 25 µM | COLO 205 > 11.6 µM | K562 2.84 µM | OVCAR-4 > 11.2 µM

O=C(c1ccccc1)c1ccc2[nH]c(-c3c(Cl)c(Cl)c(Cl)c(Cl)c3C(=O)N/N=C\C=C\c3ccccc3)nc2c1
inactive: SNB-75 59.4 µM | DU-145 73.1 µM | HOP-62 54.1 µM | SNB-19 66.2 µM | SF-268 38.6 µM | HL-60 37.8 µM | U-251 68.9 µM | IGROV-1 34.4 µM | OVCAR-8 60 µM | UACC-257 83.9 µM | T47D 16.5 µM | RPMI-8226 17.5 µM | SF-295 38.9 µM | NCI-H226 42.8 µM | COLO 205 30.5 µM | K562 19.4 µM | OVCAR-4 26.1 µM

O=C(Nc1cc(C(=O)Nc2cccc(S(=O)(=O)O)c2)cc(C(=O)Nc2cccc(S(=O)(=O)O)c2)c1)c1cccc(C(=O)Nc2cc(C(=O)Nc3cccc(S(=O)(=O)O)c3)cc(C(=O)Nc3cccc(S(=O)(=O)O)c3)c2)c1
inactive: SNB-75 > 100 µM | DU-145 > 100 µM | HOP-62 > 100 µM | SF-268 > 100 µM | HL-60 17.7 µM | U-251 > 100 µM | IGROV-1 > 100 µM | UACC-62 > 100 µM | OVCAR-8 > 100 µM | UACC-257 > 100 µM | NCI-H460 > 100 µM | T47D > 100 µM | RPMI-8226 > 100 µM | SF-295 > 100 µM | NCI-H226 > 100 µM | COLO 205 > 100 µM | K562 25.6 µM | OVCAR-4 > 100 µM

CC1=NNC(=S)NCCCN2CCN(CCCNC(=S)NN=C(C)C=NNC(=S)NCCCN3CCN(CCCNC(=S)NN=C1)CC3)CC2
inactive: SNB-75 > 100 µM | DU-145 > 100 µM | HOP-62 > 100 µM | SNB-19 > 100 µM | SF-268 > 100 µM | HL-60 > 100 µM | U-251 > 100 µM | IGROV-1 > 100 µM | UACC-62 > 100 µM | OVCAR-8 > 100 µM | UACC-257 > 100 µM | T47D > 100 µM | RPMI-8226 > 100 µM | SF-295 > 100 µM | NCI-H226 > 100 µM | COLO 205 > 100 µM | K562 > 100 µM | OVCAR-4 > 100 µM

O=C(Nc1nc2ccccc2s1)c1cc([N+](=O)[O-])ccc1Cl
inactive: SNB-75 13.8 µM | DU-145 6.84 µM | HOP-62 13.6 µM | SNB-19 28.4 µM | SF-268 4.45 µM | HL-60 1.78 µM | U-251 6.43 µM | UACC-62 7.5 µM | OVCAR-8 5 µM | UACC-257 42.2 µM | NCI-H460 1.91 µM | T47D 13.9 µM | RPMI-8226 4.81 µM | SF-295 22.3 µM | NCI-H226 16.9 µM | COLO 205 19.6 µM | K562 3.86 µM | OVCAR-4 8.39 µM

COc1cc2nc(-c3ccc4ccccc4c3)nc(O)c2cc1OC
inactive: SNB-75 13.8 µM | DU-145 > 100 µM | HOP-62 19 µM | SNB-19 23.8 µM | SF-268 19.1 µM | HL-60 > 100 µM | IGROV-1 > 100 µM | UACC-62 99.3 µM | OVCAR-8 43.2 µM | UACC-257 > 100 µM | NCI-H460 > 100 µM | T47D > 100 µM | RPMI-8226 > 100 µM | SF-295 48.9 µM | NCI-H226 > 100 µM | COLO 205 > 100 µM | K562 > 100 µM | OVCAR-4 42.9 µM

CN(c1cn(C2CC[C@@H](CO)O2)c(=O)[nH]c1=O)C1CCCCC1 (some centres undefined)
inactive: SNB-75 21.9 µM | DU-145 > 100 µM | HOP-62 > 100 µM | SNB-19 > 100 µM | SF-268 > 100 µM | HL-60 > 100 µM | U-251 > 100 µM | IGROV-1 > 100 µM | UACC-62 > 100 µM | OVCAR-8 > 100 µM | NCI-H460 > 100 µM | T47D > 100 µM | RPMI-8226 > 100 µM | SF-295 > 100 µM | NCI-H226 > 100 µM | COLO 205 > 100 µM | K562 > 100 µM | OVCAR-4 > 100 µM

NC(CNO)C(=O)O (centres undefined)
inactive: SNB-75 > 100 µM | DU-145 > 100 µM | HOP-62 > 100 µM | SNB-19 > 100 µM | SF-268 > 100 µM | HL-60 6.79 µM | U-251 > 100 µM | IGROV-1 > 100 µM | UACC-62 > 100 µM | OVCAR-8 > 100 µM | UACC-257 > 100 µM | NCI-H460 > 100 µM | T47D > 100 µM | RPMI-8226 > 100 µM | SF-295 > 100 µM | NCI-H226 > 100 µM | COLO 205 > 100 µM | OVCAR-4 > 100 µM

O=C1NC(Nc2ccccc2)=NC(C(F)(F)F)(C(F)(F)F)N1
inactive: SNB-75 11.5 µM | DU-145 35.9 µM | HOP-62 53.3 µM | SF-268 39.8 µM | HL-60 31.6 µM | U-251 27.9 µM | IGROV-1 54 µM | UACC-62 50.4 µM | OVCAR-8 40.2 µM | UACC-257 59.7 µM | NCI-H460 32.8 µM | T47D 36.4 µM | RPMI-8226 34.1 µM | SF-295 37 µM | NCI-H226 41.1 µM | COLO 205 33.4 µM | K562 49.3 µM | OVCAR-4 39.6 µM

CCCC(=O)NC1=C(NCC)C(=O)c2ccccc2C1=O
inactive: SNB-75 > 100 µM | DU-145 > 100 µM | HOP-62 > 100 µM | SNB-19 > 100 µM | SF-268 > 100 µM | HL-60 40.5 µM | U-251 > 100 µM | IGROV-1 > 100 µM | UACC-62 > 100 µM | UACC-257 39.4 µM | NCI-H460 > 100 µM | T47D > 100 µM | RPMI-8226 > 100 µM | SF-295 > 100 µM | NCI-H226 > 100 µM | COLO 205 36.6 µM | K562 50.8 µM | OVCAR-4 > 100 µM
